# Source: PubChem BioAssay AID328 (DTP/NCI, 2004)
# “And” between values parts separate entries of the source, which are not always exact repeats. Identical values can stand only once. Inconclusive results and toxic doses are left out.
# Test system: BDF1 mice, P388 leukemia ip, median survival T/C
# Experiment: NCI In Vivo Anticancer Drug Screen. Data for tumor model P388 Leukemia (intraperitoneal) in B6D2F1 (BDF1) mice
# Conditions: endpoint: median survival time, higher = longer survival
# Outline: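 Mice carrying the transplantable tumour receive compound or vehicle. Survival is followed in each arm, and the treated measure is divided by the vehicle measure.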
# [1] = dose: 100.0 mg/kg/injection, schedule: Q01DX009 (ip), vehicle: saline with Tween-80
# [2] = dose: 100.0 mg/kg/injection, schedule: Q04DX003 (ip), vehicle: saline with Tween-80
# [3] = dose: 200.0 mg/kg/injection, schedule: Q01DX009 (ip), vehicle: saline with Tween-80
# [4] = dose: 200.0 mg/kg/injection, schedule: Q04DX003 (ip), vehicle: saline with Tween-80
# [5] = dose: 400.0 mg/kg/injection, schedule: Q01DX009 (ip), vehicle: saline with Tween-80
# [6] = dose: 400.0 mg/kg/injection, schedule: Q04DX003 (ip), vehicle: saline with Tween-80
# [7] = dose: 150.0 mg/kg/injection, schedule: Q01DX009 (ip), vehicle: saline with Tween-80
# [8] = dose: 300.0 mg/kg/injection, schedule: Q04DX003 (ip), vehicle: saline with Tween-80
# [9] = dose: 12.5 mg/kg/injection, schedule: Q01DX009 (ip), vehicle: saline with Tween-80
# [10] = dose: 25.0 mg/kg/injection, schedule: Q01DX009 (ip), vehicle: saline with Tween-80
# [11] = dose: 50.0 mg/kg/injection, schedule: Q01DX009 (ip), vehicle: saline with Tween-80
# [12] = dose: 6.25 mg/kg/injection, schedule: Q04DX003 (ip), vehicle: Klucel (hydroxypropylcellulose) (HPC)
# [13] = dose: 12.5 mg/kg/injection, schedule: Q04DX003 (ip), vehicle: Klucel (hydroxypropylcellulose) (HPC)
# [14] = dose: 100.0 mg/kg/injection, schedule: Q04DX003 (ip), vehicle: Klucel (hydroxypropylcellulose) (HPC)
# [15] = dose: 200.0 mg/kg/injection, schedule: Q04DX003 (ip), vehicle: Klucel (hydroxypropylcellulose) (HPC)
# [16] = dose: 100.0 mg/kg/injection, schedule: Q01DX001 (ip), vehicle: saline with Tween-80
# [17] = dose: 200.0 mg/kg/injection, schedule: Q01DX001 (ip), vehicle: saline with Tween-80
structure (smiles),measurement,setting,value
CCC(C(=O)OC)C1CCCCC1 (configuration not stated),T/C,[1],107 % of control
same,T/C,[2],108 % of control
same,T/C,[3],111 % of control
same,T/C,[4],100 % of control
same,T/C,[5],103 % of control
same,T/C,[6],104 % of control
O=c1[nH]c(Cl)ncc1F,T/C,"dose: 67.0 mg/kg/injection, schedule: Q01DX009 (ip), vehicle: saline with Tween-80",100 % of control
same,T/C,"dose: 75.0 mg/kg/injection, schedule: Q04DX003 (ip), vehicle: saline with Tween-80",113 % of control
same,T/C,[1],103 % of control
same,T/C,[7],107 % of control
same,T/C,"dose: 150.0 mg/kg/injection, schedule: Q04DX003 (ip), vehicle: saline with Tween-80",100 % of control
same,T/C,"dose: 225.0 mg/kg/injection, schedule: Q01DX009 (ip), vehicle: saline with Tween-80",111 % of control
same,T/C,[8],86 % of control
COc1ccc(-c2c(C)c(C)nc(Cl)c2C#N)c(OCc2ccccc2)c1OC,T/C,"dose: 0.1 mg/kg/injection, schedule: Q01DX009 (ip), vehicle: Klucel (hydroxypropylcellulose) (HPC)",95 % of control
Cc1nc(N)nc2nc[nH]c12,T/C,[9],94 % of control
same,T/C,[10],96 % of control
same,T/C,[11],99 % of control
same,T/C,[1],96 % of control
Cc1cc(O)c(C(C)C)cc1S(=O)(=O)O (tested in a mixture with another compound),T/C,"dose: 37.5 mg/kg/injection, schedule: Q01DX009 (ip), vehicle: Klucel (hydroxypropylcellulose) (HPC)",95 % of control
same,T/C,[11],100 % of control
same,T/C,[1],95 % of control
same,T/C,"dose: 150.0 mg/kg/injection, schedule: Q01DX009 (ip), vehicle: Klucel (hydroxypropylcellulose) (HPC)",100 % of control
same,T/C,[7],150 % of control
CC(C)=C=CCN(C)Cc1ccccc1,T/C,"dose: 50.0 mg/kg/injection, schedule: Q01DX009 (ip), vehicle: saline",99 % of control
same,T/C,"dose: 100.0 mg/kg/injection, schedule: Q01DX009 (ip), vehicle: saline",103 % of control
O=C(Nc1ccc(Cc2ccc(NC(=O)Nc3nc4ccccc4s3)cc2)cc1)Nc1nc2ccccc2s1,T/C,[11],94 % of control
same,T/C,[1],89 % of control
same,T/C,[3],100 % of control
CC1=CCC2C(=O)C=CC(=O)C2C1 (configuration not stated),T/C,"dose: 0.57 mg/kg/injection, schedule: Q01DX009 (ip), vehicle: Klucel (hydroxypropylcellulose) (HPC)",120 % of control
same,T/C,"dose: 0.85 mg/kg/injection, schedule: Q01DX009 (ip), vehicle: Klucel (hydroxypropylcellulose) (HPC)",115 % of control
same,T/C,"dose: 2.0 mg/kg/injection, schedule: Q01DX009 (ip), vehicle: Klucel (hydroxypropylcellulose) (HPC)",118 % of control
same,T/C,"dose: 3.12 mg/kg/injection, schedule: Q04DX003 (ip), vehicle: Klucel (hydroxypropylcellulose) (HPC)",100 % of control
same,T/C,"dose: 4.12 mg/kg/injection, schedule: Q01DX009 (ip), vehicle: Klucel (hydroxypropylcellulose) (HPC)",109 % of control and 110 % of control
same,T/C,"dose: 5.0 mg/kg/injection, schedule: Q04DX003 (ip), vehicle: Klucel (hydroxypropylcellulose) (HPC)",104 % of control
same,T/C,"dose: 6.25 mg/kg/injection, schedule: Q01DX009 (ip), vehicle: Klucel (hydroxypropylcellulose) (HPC)",95 % of control and 120 % of control
same,T/C,[12],109 % of control
same,T/C,"dose: 9.37 mg/kg/injection, schedule: Q01DX009 (ip), vehicle: Klucel (hydroxypropylcellulose) (HPC)",104 % of control and 115 % of control
same,T/C,"dose: 10.0 mg/kg/injection, schedule: Q04DX003 (ip), vehicle: Klucel (hydroxypropylcellulose) (HPC)",109 % of control
same,T/C,"dose: 12.5 mg/kg/injection, schedule: Q01DX009 (ip), vehicle: Klucel (hydroxypropylcellulose) (HPC)",90 % of control
same,T/C,[13],90 % of control
same,T/C,"dose: 18.0 mg/kg/injection, schedule: Q01DX009 (ip), vehicle: Klucel (hydroxypropylcellulose) (HPC)",113 % of control
C=CC(=O)NCNC(=O)CCBr,T/C,[4],150 % of control
same,T/C,[8],170 % of control
COc1cccc2c1C(=O)c1c(O)c3c(c(O)c1C2=O)C[C@@](O)(C(C)O)C[C@@H]3OC1CC(N(Cc2ccccc2)Cc2ccccc2)C(O)C(C)O1 (some centres not stated),T/C,"dose: 2.5 mg/kg/injection, schedule: Q01DX009 (ip), vehicle: water",108 % of control
same,T/C,"dose: 5.0 mg/kg/injection, schedule: Q01DX009 (ip), vehicle: water",112 % of control
same,T/C,"dose: 20.0 mg/kg/injection, schedule: Q01DX009 (ip), vehicle: water",166 % of control
same,T/C,"dose: 40.0 mg/kg/injection, schedule: Q01DX009 (ip), vehicle: water",229 % of control
CC(CC(=O)O)C(C(=O)O)C(=O)O (configuration not stated),T/C,[12],94 % of control
same,T/C,"dose: 6.25 mg/kg/injection, schedule: Q04DX003 (ip), vehicle: water",107 % of control
same,T/C,"dose: 12.5 mg/kg/injection, schedule: Q01DX009 (ip), vehicle: water",108 % of control
same,T/C,[13],92 % of control
same,T/C,"dose: 12.5 mg/kg/injection, schedule: Q04DX003 (ip), vehicle: water",95 % of control and 105 % of control
same,T/C,"dose: 25.0 mg/kg/injection, schedule: Q01DX009 (ip), vehicle: water",107 % of control
same,T/C,"dose: 25.0 mg/kg/injection, schedule: Q04DX003 (ip), vehicle: Klucel (hydroxypropylcellulose) (HPC)",92 % of control
same,T/C,"dose: 25.0 mg/kg/injection, schedule: Q04DX003 (ip), vehicle: water",266 % of control and 94 % of control and 110 % of control
same,T/C,"dose: 50.0 mg/kg/injection, schedule: Q04DX003 (ip), vehicle: Klucel (hydroxypropylcellulose) (HPC)",90 % of control
same,T/C,"dose: 50.0 mg/kg/injection, schedule: Q04DX003 (ip), vehicle: water",266 % of control and 95 % of control and 117 % of control
same,T/C,"dose: 100.0 mg/kg/injection, schedule: Q01DX009 (ip), vehicle: water",100 % of control
same,T/C,[14],91 % of control
same,T/C,"dose: 100.0 mg/kg/injection, schedule: Q04DX003 (ip), vehicle: water",86 % of control and 95 % of control and 100 % of control
same,T/C,"dose: 200.0 mg/kg/injection, schedule: Q01DX009 (ip), vehicle: water",91 % of control
same,T/C,[15],90 % of control
same,T/C,"dose: 200.0 mg/kg/injection, schedule: Q04DX003 (ip), vehicle: water",101 % of control and 111 % of control
same,T/C,"dose: 400.0 mg/kg/injection, schedule: Q01DX009 (ip), vehicle: water",91 % of control
Cc1ccc(NCCN2CCCCC2)c2c(=O)c3ccccc3sc12,T/C,"dose: 100.0 mg/kg/injection, schedule: Q01DX009 (ip), vehicle: Klucel (hydroxypropylcellulose) (HPC)",115 % of control
same,T/C,[14],115 % of control
same,T/C,"dose: 200.0 mg/kg/injection, schedule: Q01DX009 (ip), vehicle: Klucel (hydroxypropylcellulose) (HPC)",110 % of control
same,T/C,[15],115 % of control
same,T/C,"dose: 264.0 mg/kg/injection, schedule: Q01DX009 (ip), vehicle: Klucel (hydroxypropylcellulose) (HPC)",150 % of control
same,T/C,"dose: 264.0 mg/kg/injection, schedule: Q04DX003 (ip), vehicle: Klucel (hydroxypropylcellulose) (HPC)",118 % of control and 120 % of control
same,T/C,"dose: 400.0 mg/kg/injection, schedule: Q04DX003 (ip), vehicle: Klucel (hydroxypropylcellulose) (HPC)",122 % of control
O=C1c2cccnc2C(=O)c2c(O)ccc(O)c21,T/C,[10],97 % of control
same,T/C,[11],99 % of control
same,T/C,[1],92 % of control
same,T/C,[3],115 % of control
CCOc1cc(Cl)c(N)c(Cl)c1,T/C,[16],114 % of control
same,T/C,[17],98 % of control
COC(=O)CCSCCC(=O)OC,T/C,[1],100 % of control
same,T/C,[2],110 % of control
same,T/C,[3],100 % of control
same,T/C,[4],100 % of control
same,T/C,[5],100 % of control
same,T/C,[6],105 % of control
N#CC1(c2ccc(Cl)cc2)CCC1,T/C,[1],112 % of control
same,T/C,[3],108 % of control
C(COCCOCC1CO1)OCCOCC1CO1 (configuration not stated),T/C,"dose: 50.0 mg/kg/injection, schedule: Q01DX010 (ip), vehicle: saline",109 % of control
same,T/C,"dose: 200.0 mg/kg/injection, schedule: Q01DX010 (ip), vehicle: saline",150 % of control
same,T/C,"dose: 400.0 mg/kg/injection, schedule: Q01DX010 (ip), vehicle: saline",154 % of control and 172 % of control
CCCNCCC(O)c1cc(C(F)(F)F)nc2c(C(F)(F)F)cccc12 (configuration not stated),T/C,[10],103 % of control
same,T/C,[11],111 % of control and 124 % of control
same,T/C,[1],111 % of control
NNC(=O)C1CC2C=CCC(C2)C1 (configuration not stated),T/C,"dose: 50.0 mg/kg/injection, schedule: Q01DX001 (ip), vehicle: saline with Tween-80",100 % of control
same,T/C,[16],91 % of control
same,T/C,[17],91 % of control
O=C1C(Br)=C(Br)C(=O)C1(Br)Br,T/C,"dose: 8.25 mg/kg/injection, schedule: Q01DX009 (ip), vehicle: saline with Tween-80",100 % of control
same,T/C,[9],109 % of control
same,T/C,"dose: 18.75 mg/kg/injection, schedule: Q01DX009 (ip), vehicle: saline with Tween-80",113 % of control
